Experimental data as given in US20240391899A1, “POTENT AND SELECTIVE INHIBITORS OF IRAK4” (Dana-Farber Cancer Institute, Inc., priority 2021, published 2024).

How the values were obtained:
[1] = test system: JeKo-1; assay: CellTiter-Glo Luminescent cell viability assay, JeKo-1; assay type: cell-based; conditions: Homo sapiens, JeKo-1 cell line, 72 hours at 37° C., read-out: ED50 (the source's name)
Procedure: (§1) The CellTiter-Glo® Luminescent cell viability assay (Promega, Madison WI) was used to assess the dose-response of inhibitors alone or in combination. Cells were seeded into 384 well plates with the EL406 Combination Washer Dispenser (BioTek Instruments, Inc.) and inhibitors were injected into culture media with the JANUS Automated Workstation (PerkinElmer Inc., Waltham MA). Cells were incubated with inhibitors for 72 hours at 37° C. Luminescent measurements to assess cell viability were performed using the 2104 Envision® Multilabel Reader (PerkinElmer Inc.). Drug interactions were assessed by CalcuSyn 2.0 software (Biosoft, Cambridge UK) based on Chou TC.

[2] = test system: MWCL-1; assay: CellTiter-Glo Luminescent cell viability assay, MWCL-1; assay type: cell-based; conditions: MWCL-1 cell line, 72 hours at 37° C., read-out: ED50 (the source's name)
Procedure: as §1

[3] = test system: TMD8; assay: CellTiter-Glo Luminescent cell viability assay, TMD8; assay type: cell-based; conditions: Homo sapiens, TMD8 cell line, 72 hours at 37° C., read-out: ED50 (the source's name)
Procedure: as §1

[4] = test system: SU-DHL-6; assay: CellTiter-Glo Luminescent cell viability assay, SU-DHL-6; assay type: cell-based; conditions: Homo sapiens, SU-DHL-6 cell line, 72 hours at 37° C., read-out: ED50 (the source's name)
Procedure: as §1

[5] = test system: BCWM.1; assay: CellTiter-Glo Luminescent cell viability assay, BCWM.1; assay type: cell-based; conditions: BCWM1, BCWM.1 cell line, 72 hours at 37° C., read-out: ED50 (the source's name)
Procedure: as §1

[6] = test system: OCI-Ly19; assay: CellTiter-Glo Luminescent cell viability assay, OCI-Ly19; assay type: cell-based; conditions: Homo sapiens, OCI-Ly19 cell line, 72 hours at 37° C., read-out: ED50 (the source's name)
Procedure: as §1

[7] = test system: HBL-1; assay: CellTiter-Glo Luminescent cell viability assay, HBL-1; assay type: cell-based; conditions: HBL1, HBL-1 cell line, 72 hours at 37° C., read-out: ED50 (the source's name)
Procedure: as §1

[8] = test system: OCI-Ly7; assay: CellTiter-Glo Luminescent cell viability assay, OCI-Ly7; assay type: cell-based; conditions: Homo sapiens, OCI-Ly7 cell line, 72 hours at 37° C., read-out: ED50 (the source's name)
Procedure: as §1

[9] = test system: RPMI-8226; assay: CellTiter-Glo Luminescent cell viability assay, RPMI-8226; assay type: cell-based; conditions: Homo sapiens, RPMI-8226 cell line, 72 hours at 37° C., read-out: ED50 (the source's name)
Procedure: as §1

[10] = test system: Ramos; assay: CellTiter-Glo Luminescent cell viability assay, Ramos; assay type: cell-based; conditions: Homo sapiens, Ramos cell line, 72 hours at 37° C., read-out: ED50 (the source's name)
Procedure: as §1

[11] = target: T1, IRAK1 (Homo sapiens, UniProt P51617); assay: IRAK1 enzymatic assay (Adapta Universal Kinase Assay, ThermoFisher); assay type: biochemical; conditions: 60 minutes at room temperature
T1 construct: purchased ThermoFisher
Procedure: To measure the IC50 values of the compounds herein against IRAK1, the Adapta Universal Kinase Assay (ThermoFisher) was used. Briefly, 100 nL of different concentrations of the compounds in 100% DMSO were added to each well of a 384-well plate (Corning Cat. #4512). 2.4 μL of 30 mM HEPES, 2.5 μL of 4×ATP solution (in water), and 5 μL of 2×IRAK1/Histone H3 (1-20) peptide mixture (prepared in 50 mM HEPES pH 7.5, 0.01% BRIJ-35, 10 mM MgCl2, 1 mM EGTA) were added to each well. The plate was shaken for 30 seconds and centrifuged for 1 minute at 1000×g. The plate was then incubated at room temperature for 60 minutes. 5 μL of Detection Mix was added to each well. The plate was shaken for 30 seconds and centrifuged for 1 minute at 1000×g. The plate was then incubated at room temperature for 60 minutes. The plate was subsequently read on a fluorescence plate reader, and the emissions ratio was calculated to determine the ratio of ATP to ADP. Emissions Ratio=AF647 Emission (665 nm)/Europium Emission (615 nm).

[12] = target: T2, IRAK4 (Homo sapiens, UniProt Q9NWZ3); assay: IRAK4 enzymatic assay (Z'-LYTE, ThermoFisher); assay type: biochemical; conditions: 60 minutes at room temperature
T2 construct: purchased ThermoFisher
T2 sequence (Q9NWZ3 1-460): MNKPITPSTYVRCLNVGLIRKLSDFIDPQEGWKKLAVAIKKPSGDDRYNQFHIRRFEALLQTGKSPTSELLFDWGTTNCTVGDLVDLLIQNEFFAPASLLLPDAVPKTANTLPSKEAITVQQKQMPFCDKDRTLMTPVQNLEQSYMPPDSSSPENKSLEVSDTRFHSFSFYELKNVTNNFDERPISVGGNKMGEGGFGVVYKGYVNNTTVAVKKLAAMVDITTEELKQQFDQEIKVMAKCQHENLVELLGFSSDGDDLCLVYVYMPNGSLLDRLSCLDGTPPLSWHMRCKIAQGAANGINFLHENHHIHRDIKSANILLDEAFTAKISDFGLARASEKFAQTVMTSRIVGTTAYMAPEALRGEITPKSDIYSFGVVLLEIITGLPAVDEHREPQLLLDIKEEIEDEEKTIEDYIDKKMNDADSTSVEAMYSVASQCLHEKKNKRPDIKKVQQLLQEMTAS
Procedure: To measure the IC50 values of compounds herein against IRAK4, a Z′-LYTE assay (ThermoFisher) was used. Briefly, 2.5 μL of different concentrations of the compounds in 1% DMSO were added to 2.4 μL kinase buffer (50 mM HEPES pH 7.5, 0.01% BRIJ-35, 10 mM MgCl2, 1 mM EGTA) in each well of a 384-well plate (Corning Cat. #3676). 5 μL of 2×IRAK4/Ser/Thr 07 mixture (prepared in 50 mM HEPES pH 7.5, 0.01% BRIJ-35, 10 mM MnCl2, 2 mM DTT, and 0.02% NaN3) and 2.5 μL of 4×ATP solution (4×ATP, 50 mM HEPES, pH 7.5, 0.01% BRIJ-35, 10 mM MgCl2, 1 mM EGTA) were added to each well. The plate was shaken for 30 seconds, and then incubated at room temperature for 60 minutes. 5 μL of a 1:100000 dilution of Development Reagent A was added to each well. The plate was shaken for 30 seconds and incubated for 60 minutes at room temperature. The plate was subsequently read on a fluorescence plate reader, and the emissions ratio was calculated to determine the ratio of Ser/Thr 07 phosphorylated by the reaction. Emissions Ratio=Coumarin Emission (443 nm)/Flourescein Emission (520 nm).

[13] = test system: multiple cell lines; assay: Cellular IRAK4 inhibitory activity screened across multiple cell lines; assay type: cell-based
Procedure: as §1, with “TC. Cellular IRAK4 inhibitory activities of compound 015 and two commercial IRAK4 inhibitors, CA-4948 and PF06650833, were screened across multiple cell lines.” for “TC.”

T1 sequence (P51617 whole entry): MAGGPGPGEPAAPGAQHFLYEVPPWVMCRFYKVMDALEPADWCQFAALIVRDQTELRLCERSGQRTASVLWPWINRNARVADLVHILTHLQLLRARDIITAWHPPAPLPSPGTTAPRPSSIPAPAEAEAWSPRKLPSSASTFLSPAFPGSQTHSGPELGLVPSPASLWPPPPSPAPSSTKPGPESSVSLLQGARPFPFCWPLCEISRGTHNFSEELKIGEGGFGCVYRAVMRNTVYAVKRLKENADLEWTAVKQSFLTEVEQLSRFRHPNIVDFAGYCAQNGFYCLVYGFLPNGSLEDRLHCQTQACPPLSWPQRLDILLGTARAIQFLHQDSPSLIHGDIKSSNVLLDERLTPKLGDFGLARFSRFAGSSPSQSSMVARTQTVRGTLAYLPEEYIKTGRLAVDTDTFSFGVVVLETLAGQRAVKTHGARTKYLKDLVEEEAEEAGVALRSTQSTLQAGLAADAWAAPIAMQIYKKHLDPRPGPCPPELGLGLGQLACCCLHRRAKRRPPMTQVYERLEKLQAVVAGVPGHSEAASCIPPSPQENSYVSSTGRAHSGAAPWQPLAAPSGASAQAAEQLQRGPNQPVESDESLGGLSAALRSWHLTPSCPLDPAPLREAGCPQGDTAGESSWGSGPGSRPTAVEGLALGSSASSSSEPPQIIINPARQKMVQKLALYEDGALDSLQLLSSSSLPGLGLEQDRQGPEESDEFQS

Structure (SMILES)	EC50 [1] [µM]	EC50 [2] [µM]	EC50 [3] [µM]	EC50 [4] [µM]	EC50 [5] [µM]	EC50 [6] [µM]	EC50 [7] [µM]	EC50 [8] [µM]	EC50 [9] [µM]	EC50 [10] [µM]	IC50 [11] [µM]	IC50 [12] [µM]	Potency compared with CA-4948 and PF06650833 [13]
Cc1cc(-c2nc(C(=O)Nc3cc4oc(N5CCOCC5)nc4nc3N3CC[C@@H](O)C3)co2)ccn1 [CA-4948]	6.57	11.9	9.37	8.69	1.99	2.2	11.1	13	14				
Cc1ccc(-n2nc(C3CCN(C(C)C)CC3)cc2NC(=O)c2cccc(-c3cnn(CC(N)=O)c3)n2)nc1 [Compound 015, 6-(1-(2-amino-2-oxoethyl)-1H-pyrazol-4-yl)-N-(3-(1-isopropylpiperidin-4-yl)-1-(5-methylpyridin-2-yl)-1H-pyrazol-5-yl)picolinamide]	6.26	6.92	3.92	1.72	3.33	1.22	2.2	3.11	6.78	0.362	0.45	0.009	more potent in most cell lines
CC[C@@H]1[C@H](F)C(=O)N[C@@H]1COc1nccc2cc(C(N)=O)c(OC)cc12 [PF06650833]		18.3	24.1		11	5.87	14.8	9.8	80.5	28.7			
